Earlier results, collected in patent US20040033271A1, “Methods for contemporaneous administration of levamisole and 5-fluorouracil” (priority 2003, published 2004).
Where two headings read alike, the source gives them in different places.

Key:
bladder cancer = conditions: rats
[1] = levamisole in humans
[2] = not given; remark: listed apart in the source
[3] = not given; remark: listed apart in the source
[4] = guinea pigs
A375 melanoma cell line = conditions: most sensitive cell line
[5] = test system: Human colorectal cancer xenografts; conditions: levamisole alone
breast cancer [6] = conditions: post-surgical levamisole, large study
Dukes' C. colon cancer = conditions: levamisole alone
colorectal cancer = conditions: added to leucovorin/5-FU regimen after surgical resection
breast cancer [7] = conditions: superimposed on CAF; no same-day 5-FU and levamisole

c1ccc([C@@H]2CN3CCSC3=N2)cc1 [Dexamisole]
potentiation of BCNU compared with levamisole (bladder cancer): less active

c1ccc([C@H]2CN3CCSC3=N2)cc1 [levamisole]
serum half-life [1]: about four | time to peak plasma concentration (after oral levamisole administration): 2 h | difference between the highest and lowest AUC (area under curve) (twenty cancer patients, oral levamisole 50 mg t.i.d.): seven | adverse effect of increased oral dose ([2]; five-fold increase in the recommended oral levamisole dose): severe nausea and vomiting | maximum tolerable dose ([2]; oral t.i.d. for five days with daily 5-FU, repeated every five weeks): 100 mg/m^2 | time after administration at which cardiac effects are seen ([3]; bolus IV, stated for rats and guinea pigs together): ≤ 60 s | IV dose at which cardiotoxicity was observed (as low as) ([3]; rats, IV): 2 mg/kg | IV dose at which ECG irregularities were seen [4]: 10 mg/kg | levamisole concentration affecting colony formation (A375 melanoma cell line; in presence of 5-FU): 30 µg/mL | levamisole concentration affecting colony formation (A375 melanoma cell line; molar value in brackets): 0.125 µM | effect on xenografts [5]: unaffected | recurrence (breast cancer [6]): increase in recurrence | clinical benefit (Dukes' C. colon cancer): no benefit | effect of addition of levamisole (colorectal cancer): no additive effect | effect of added levamisole (breast cancer [7]): modest effects over untreated historical controls

Oc1ccc([C@H]2CN3CCSC3=N2)cc1 [4-hydroxy analogue of levamisole, 4-hydroxylevamisole]
phosphatase inhibition (phosphatases): capable of inhibiting phosphatases

Brc1ccc([C@H]2CN3CCSC3=N2)cc1 [4-bromo analogue of levamisole, 4-bromolevamisole]
phosphatase inhibition (phosphatases): capable of inhibiting phosphatases
